Usually EC50 stands for the concentration that produces a half-maximal response. A word on the Ki: it is the dissociation constant of the complex between target and ligand, obtained from inhibition or displacement. A high value points to weaker binding.

This note sets out measurements from patent US8518952B2, “6 substituted 2-heterocyclylamino pyrazine compounds as CHK-1 inhibitors” (Pfizer Inc., priority 2008, dated 2013).

The structures appear in SMILES notation.

Test [1] deals with T1, CHK1 (kinase domain) (Homo sapiens, UniProt O14757).
T1 construct: a solution containing 1 nM of CHK1 (kinase domain)
T1 sequence (O14757 9-265 limits assumed): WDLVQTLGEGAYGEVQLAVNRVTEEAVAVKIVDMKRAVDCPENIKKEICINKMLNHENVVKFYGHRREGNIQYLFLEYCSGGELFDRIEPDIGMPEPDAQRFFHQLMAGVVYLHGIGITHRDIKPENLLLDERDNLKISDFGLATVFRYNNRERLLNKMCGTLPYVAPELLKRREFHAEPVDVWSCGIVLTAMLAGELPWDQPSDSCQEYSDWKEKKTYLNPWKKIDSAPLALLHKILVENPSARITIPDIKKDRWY
The test is described as follows: CHK1 Ki determination, spectrophotometric coupled (pyruvate kinase/lactate dehydrogenase) assay. The class given is biochemical. To be noted: CHK-1 kinase domain; for percent inhibition (where no Ki data is available): inhibitor concentration not given; for Ki: 150 uM ATP, 125 uM Syntide 2. Put shortly:
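The CHK1 kinase domain was pre-incubated with compound for 15 min, and the reaction was started with 125 uM Syntide 2 and 150 uM ATP. ADP formation was coupled through pyruvate kinase/lactate dehydrogenase to NADH oxidation, read as the A340 decrease. Kiapp was fitted with a tight-binding equation that accounts for enzyme concentration and ATP Km; some entries are % inhibition.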

Test [2] deals with HeLa cells. Kind of test: Histone H3 (Ser10) phosphorylation ELISA, abrogation of camptothecin-induced G2 arrest (CHK-1 cellular assay). The class given is cell-based. To be noted: Homo sapiens, HeLa, HeLa cells; camptothecin 8 hrs, then compound with nocodozole 16 hours; read-out: EC50. Put shortly: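 HeLa cells, or MiaPaCa-2 where marked, received camptothecin for 8 h, then compound with nocodazole for 16 h. Ser10-phosphorylated histone H3 in lysates was measured by ELISA with a biotinylated antibody, streptavidin-HRP and TMB. EC50 came from four-parameter sigmoid fits.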

For the molecule `c1cnc2c(-c3cncc(N[C@@H]4CCNC4)n3)cnn2c1` [Example 121, 6-pyrazolo[1,5-a]pyrimidin-3-yl-N-[(3R)-pyrrolidin-3-yl]pyrazin-2-amine], the “percent inhibition (where no Ki data is available)” value in test [1] was determined as 16.5%^. Besides, the EC50 in test [2] was not below 10000 nM.
Taken in the same sequence, the figures for `CC(C)(C)CCOc1ccn2c(-c3cncc(N[C@@H]4CCCNC4)n3)cnc2c1` [Example 148, 6-[7-(3,3-dimethylbutoxy)imidazo[1,2-a]pyridin-3-yl]-N-[(3R)-piperidin-3-yl]pyrazin-2-amine] were 104%^ and not below 10000 nM.
For `Clc1ccc2c(-c3cncc(N[C@@H]4CCNC4)n3)cnn2c1` [Example 113, 6-(6-chloropyrazolo[1,5-a]pyridin-3-yl)-N-[(3R)-pyrrolidin-3-yl]pyrazin-2-amine], the “percent inhibition (where no Ki data is available)” value in test [1] came out at 95.5%^. Besides, the EC50 in test [2] was 103 nM.
In test [1], `F[C@@H]1CCNC[C@@H]1Nc1cncc(-c2cnc3ccccn23)n1` [Example 27, N-[(3S,4R)-4-fluoropiperidin-3-yl]-6-(imidazo[1,2-a]pyridin-3-yl)pyrazin-2-amine] returned a Ki of 53.9 nM. In test [2], the EC50 is 5580 nM.
Taken in the same sequence, the figures for `FC(F)(F)c1ccn2c(-c3cncc(N[C@@H]4CCNC4)n3)cnc2c1` [Example 53, N-[(3R)-pyrrolidin-3-yl]-6-[7-(trifluoromethyl)imidazo[1,2-a]pyridin-3-yl]pyrazin-2-amine] were 37 nM and 459 nM.
In the same order, the values of `CCc1cn2c(-c3cncc(N[C@@H]4CC[C@@H](C)NC4)n3)cnc2s1` [Example 106, 6-(2-ethylimidazo[2,1-b][1,3]thiazol-5-yl)-N-[(3R,6R)-6-methylpiperidin-3-yl]pyrazin-2-amine] are 21.8 nM and 271 nM.
Taken in the same sequence, the figures for `Cc1ccn2c(-c3cncc(N[C@@H]4CCNC4)n3)cnc2c1` [Example 51, 6-(7-Methylimidazo[1,2-a]pyridin-3-yl)-N-[(3R)-pyrrolidin-3-yl]pyrazin-2-amine] were 9.6 nM and 95.6 nM.
In turn, `COc1ccc2ncn(-c3cncc(N[C@@H]4CCNC4)n3)c2c1` [Example 216, 6-(6-methoxy-1H-benzimidazol-1-yl)-N-[(3R)-pyrrolidin-3-yl]pyrazin-2-amine] had a Ki in test [1] of 15.5 nM. Moreover, the EC50 in test [2] worked out at 35.8 nM.
In the same order, the values of `COc1ccc2c(c1)ncn2-c1cncc(N[C@@H]2CCNC2)n1` [Example 218, 6-(5-methoxy-1H-benzimidazol-1-yl)-N-[(3R)-pyrrolidin-3-yl]pyrazin-2-amine] are 5.12 nM and not below 10000 nM.
With `FC1(F)CCNCC1Nc1cncc(-c2cnc3ccccn23)n1` (stereo not drawn) [Example 11, N-(4,4-difluoropiperidin-3-yl)-6-(imidazo[1,2-a]pyridin-3-yl)pyrazin-2-amine], the “percent inhibition (where no Ki data is available)” value in test [1] worked out at 101%^. In addition, in test [2], the EC50 was found to be 62.1 nM.
`Cc1cn2c(-c3cncc(N[C@H]4CN[C@H](C)C4)n3)cnc2s1` [Example 178, 6-(2-methylimidazo[2,1-b][1,3]thiazol-5-yl)-N-[(3R,5R)-5-methylpyrrolidin-3-yl]pyrazin-2-amine] registered a Ki in test [1] of 2.01 nM. Moreover, the EC50 in test [2] came to 31.2 nM.
In the same order, the values of `c1ccn2c(-c3cncc(N[C@H]4CCNC4)n3)cnc2c1` [Example 48, 6-Imidazo[1,2-a]pyridin-3-yl-N-[(3S)-pyrrolidin-3-yl]pyrazin-2-amine] are 165 nM and 600 nM.
Taken in the same sequence, the figures for `C[C@H]1CC[C@@H](Nc2cncc(-c3cnc4ccc(F)cn34)n2)CN1` [Example 93, 6-(6-fluoroimidazo[1,2-a]pyridin-3-yl)-N-[(3R,6S)-6-methylpiperidin-3-yl]pyrazin-2-amine] were 89 nM and 3330 nM.
Molecule `C[C@@H]1C[C@@H](Nc2cncc(-c3cnn4ccccc34)n2)CN1` [Example 145, N-[(3R,5R)-5-methylpyrrolidin-3-yl]-6-pyrazolo[1,5-a]pyridin-3-ylpyrazin-2-amine] registered an inhibition constant Ki in test [1] of 8.1 nM. Also, in test [2], the EC50 turned out to be 389 nM.
In turn, `C[C@@H]1NCCC[C@H]1Nc1cncc(-c2cnc3cnccn23)n1` [Example 167, 6-(imidazo[1,2-a]pyrazin-3-yl)-N-[(2S,3R)-2-methylpiperidin-3-yl]pyrazin-2-amine] yielded an inhibition constant Ki in test [1] of 101 nM. Also, the EC50 in test [2] is not below 10000 nM.
In turn, `CC(C)c1ccc2ncc(-c3cncc(N[C@@H]4CCCNC4)n3)n2c1` [Example 43, 6-(6-Isopropylimidazo[1,2-a]pyridin-3-yl)-N-[(3R)-piperidin-3-yl]pyrazin-2-amine] had a Ki in test [1] of 6.69 nM. Moreover, the EC50 in test [2] amounted to 64.6 nM.
For `C[C@H]1NCCC[C@@H]1Nc1cncc(-c2cnc3cnccn23)n1` [Example 171, 6-(imidazo[1,2-a]pyrazin-3-yl)-N-[(2R,3S)-2-methylpiperidin-3-yl]pyrazin-2-amine], in test [1], the “percent inhibition (where no Ki data is available)” value is on record as 21.7%^. The EC50 in test [2] is not below 10000 nM.
With `CC(C)Oc1ccc2c(c1)ncn2-c1cncc(N[C@@H]2CCNC2)n1` [Example 222, 6-[5-(propan-2-yloxy)-1H-benzimidazol-1-yl]-N-[(3R)-pyrrolidin-3-yl]pyrazin-2-amine], the “percent inhibition (where no Ki data is available)” value in test [1] is 42.5%^. Further, in test [2], the half-maximal effective concentration (EC50) is not below 10000 nM.
Turning to `CC(Oc1ccn2c(-c3cncc(N[C@@H]4CCNC4)n3)cnc2c1)C(F)(F)F` (stereo partly drawn) [Example 136, N-[(3R)-pyrrolidin-3-yl]-6-[7-(2,2,2-trifluoro-1-methylethoxy)imidazo[1,2-a]pyridin-3-yl]pyrazin-2-amine], affinity in test [1] was put at a Ki of 52 nM. Moreover, the EC50 in test [2] was 966 nM.
`CO[C@@H]1CNC[C@@H]1Nc1cncc(-c2cnc3ccccn23)n1` [Example 190, 6-(imidazo[1,2-a]pyridin-3-yl)-N-[(3S,4R)-4-methoxypyrrolidin-3-yl]pyrazin-2-amine]: the affinity in test [1], expressed as Ki, was 156 nM. In addition, the concentration for a half-maximal effect (EC50) in test [2] was determined as 1320 nM.
In the same order, the values of `COC[C@@H]1C[C@@H](Nc2cncc(-c3cnc4ccc(Cl)cn34)n2)CN1` [Example 246, 6-(6-chloroimidazo[1,2-a]pyridin-3-yl)-N-[(3R,5S)-5-(methoxymethyl)pyrrolidin-3-yl]pyrazin-2-amine] are 35.3 nM and 229 nM.
Taken in the same sequence, the figures for `CCC(COC)Oc1ccn2c(-c3cncc(N[C@@H]4CCCNC4)n3)cnc2c1` (stereo partly drawn) [Example 122, 6-{7-[1-(methoxymethyl)propoxy]imidazo[1,2-a]pyridin-3-yl}-N-[(3R)-piperidin-3-yl]pyrazin-2-amine] were 11 nM and 1060 nM.
Taken in the same sequence, the figures for `FC[C@@H]1C[C@@H](Nc2cncc(-c3cnc4cc(C(F)(F)F)ccn34)n2)CN1` [Example 78, N-[(3R,5S)-5-(fluoromethyl)pyrrolidin-3-yl]-6-[7-(trifluoromethyl)imidazo[1,2-a]pyridin-3-yl]pyrazin-2-amine] were 37.1 nM and 3560 nM.
As for `Fc1ccc2ncc(-c3cncc(N[C@@H]4CCNC4)n3)n2c1` [Example 91, 6-(6-fluoroimidazo[1,2-a]pyridin-3-yl)-N-[(3R)-pyrrolidin-3-yl]pyrazin-2-amine], the inhibition constant Ki in test [1] came to 18.7 nM. For the same molecule, the EC50 in test [2] came to 497 nM.
In the same order, the values of `Cc1ccn2c(-c3cncc(N[C@@H]4CCCNC4)n3)cnc2c1` [Example 38, 6-(7-Methylimidazo[1,2-a]pyridin-3-yl)-N-[(3R)-piperidin-3-yl]pyrazin-2-amine] are 8 nM and 40 nM.
With `CC(C)c1cn2c(-c3cncc(N[C@H]4CNC[C@H]4CF)n3)cnc2s1` [Example 184, N-[(3R,4R)-4-(fluoromethyl)pyrrolidin-3-yl]-6-[2-(propan-2-yl)imidazo[2,1-b][1,3]thiazol-5-yl]pyrazin-2-amine], the “percent inhibition (where no Ki data is available)” value in test [1] is listed as 109%^. Further, the EC50 in test [2] came out at 66.4 nM.
For `Cc1cn2c(-c3cncc(N[C@@H]4CNC[C@@H]4C)n3)cnc2s1` [Example 140, 6-(2-methylimidazo[2,1-b][1,3]thiazol-5-yl)-N-[(3S,4S)-4-methylpyrrolidin-3-yl]pyrazin-2-amine], in test [1], the Ki was 1.07 nM. Further, the EC50 in test [2] turned out to be 19.2 nM.
With `CC(C)Oc1ccc2ncn(-c3cncc(N[C@@H]4CCNC4)n3)c2c1` [Example 15, 6-[6-(propan-2-yloxy)-1H-benzimidazol-1-yl]-N-[(3R)-pyrrolidin-3-yl]pyrazin-2-amine], the “percent inhibition (where no Ki data is available)” value in test [1] is 43.5%^. Besides, the EC50 in test [2] was not below 10000 nM.
In the case of `FC(F)[C@@H]1C[C@@H](Nc2cncc(-c3cnc4cc(C(F)(F)F)ccn34)n2)CN1` [Example 89, N-[(3R,5S)-5-(difluoromethyl)pyrrolidin-3-yl]-6-[7-(trifluoromethyl)imidazo[1,2-a]pyridin-3-yl]pyrazin-2-amine], the affinity in test [1] corresponds to a Ki of 261 nM. The EC50 in test [2] is not below 10000 nM.
In the same order, the values of `C[C@@H]1CC[C@@H](Nc2cncc(-n3cnc4cc(OCC5(C)COC5)ccc43)n2)CN1` [Example 9, 6-{5-[(3-Methyloxetan-3-yl)methoxy]-1H-benzimidazol-1-yl}-N-[(3R,6R)-6-methylpiperidin-3-yl]pyrazin-2-amine] are 131 nM and not below 10000 nM.
